Assay results published in patent publication US11613525B2 (CTXT PTY LIMITED, priority 2018, dated 2023).
Where a name gives a salt, the structure may show the parent alone. Read-outs that look alike come from different tables or passages of the source.

Legend:
human STING (HAQ) = human STING (HAQ) (Homo sapiens, UniProt Q86WV6, G230A/H232R/R293Q); test: biochemical; format: binding; settings: for ΔTm at 100 µM: read-out: DSF huSTING (HAQ) ΔTm (° C.)
Experimental: (§1) DSF monitors thermal unfolding of protein in the presence of a fluorescent dye and is typically performed using a real-time PCR instrument. The temperature at which a protein unfolds is measured by an increase in the fluorescence of a dye with affinity for hydrophobic parts of the protein that are gradually exposed during unfolding. The fluorescence of the dye is quenched in aqueous environments, but when the dye associates with hydrophobic sites on the unfolded protein, its fluorescence increases. The fluorescence intensity is plotted as a function of the temperature, generating a sigmoidal curve that can be described by a two-state transition. The inflection point of the transition curve (Tm) is calculated using simple equations such as that of Boltzman.
(§2) Sealed plates were then placed into a Bio-Rad CFX96/C1000 thermocycler and FRET scanning mode (λ^excitation of 490 nm and reads at λ^emission of 570 nm) was used to measure fluorescence intensity. […] The melting point (Tm) obtained for STING protein alone was subtracted from Tm obtained for protein incubated with ligand to generate ΔTm values listed in the table below.
(§3) These additional compounds were tested as described above, however the protein concentration was 2 μM.

huSTING (WT) [1] = target: T1, huSTING (WT) (Homo sapiens (Human), UniProt Q86WV6, H232R); test: THP-1 reporter cell line assay, THP-1-Dual KI-hSTING-R232 cells; format: cell-based; settings: read-out: Cellular EC50 huSTING (WT)
Target sequence in this assay (Q86WV6 whole entry H232R): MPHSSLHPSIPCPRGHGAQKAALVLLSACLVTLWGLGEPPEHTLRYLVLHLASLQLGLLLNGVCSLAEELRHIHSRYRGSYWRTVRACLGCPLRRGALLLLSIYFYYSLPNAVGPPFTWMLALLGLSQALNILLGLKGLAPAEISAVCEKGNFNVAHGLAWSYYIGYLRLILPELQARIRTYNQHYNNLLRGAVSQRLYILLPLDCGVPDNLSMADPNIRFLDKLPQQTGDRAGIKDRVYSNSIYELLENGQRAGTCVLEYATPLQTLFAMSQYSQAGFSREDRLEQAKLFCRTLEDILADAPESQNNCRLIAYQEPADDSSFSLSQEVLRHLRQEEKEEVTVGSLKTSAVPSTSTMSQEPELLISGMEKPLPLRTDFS

huSTING (HAQ) = huSTING (HAQ) (Homo sapiens (Human), UniProt Q86WV6, G230A/H232R/R293Q/R71H); test: THP-1 reporter cell line assay, THP-1 STING Lucia ISG cells; format: cell-based; settings: THP-1 STING Lucia ISG cells, read-out: Cellular EC50 huSTING (HAQ)
huSTING (WT) [2] = target: T1, huSTING (WT); test: Differential scanning fluorimetry (DSF), huSTING (WT); format: binding
Experimental: as §1, §2, §3
Target sequence in this assay (Q86WV6 other isoform, or with tags, fused parts or gaps, stated change not applied): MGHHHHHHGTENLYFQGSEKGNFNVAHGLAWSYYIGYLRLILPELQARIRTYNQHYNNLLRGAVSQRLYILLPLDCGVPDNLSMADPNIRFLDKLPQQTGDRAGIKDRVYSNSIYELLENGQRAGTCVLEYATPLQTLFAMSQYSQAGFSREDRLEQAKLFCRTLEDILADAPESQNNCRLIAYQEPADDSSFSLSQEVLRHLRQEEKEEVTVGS

[3] = modified method, top concentration 40 μM, pin tool, EnVision

Chain of human STING (HAQ) (Q86WV6 whole entry G230A/H232R/R293Q, looked up): as the sequence (Q86WV6 whole entry H232R) above, with G230A, R293Q counted along it
Chain of huSTING (HAQ) (Q86WV6 whole entry R71H/G230A/H232R/R293Q): as the sequence (Q86WV6 whole entry H232R) above, with R71H, G230A, R293Q counted along it

SMILES | EC50 (huSTING (WT) [1]) | EC50 (huSTING (HAQ); [3]) | further results
CCOC(=O)c1sc2cccc(F)c2c1COc1c(F)cc(C(N)=O)cc1F [Example 2, Ethyl 3-((4-carbamoyl-2,6-difluorophenoxy)methyl)-4-fluorobenzo[b]thiophene-2-carboxylate] | > 50 µM |  | ΔTm at 100 µM (human STING (HAQ)): 1.44 °C; EC50 (huSTING (HAQ); 24 h, top concentration 50 μM): 2.07 µM
CC(C)OC(=O)c1sc2cccc(F)c2c1COc1ccc(C(N)=O)cc1 [Example 4, Isopropyl 3-((4-carbamoylphenoxy)methyl)-4-fluorobenzo[b]thiophene-2-carboxylate] | > 50 µM |  | ΔTm at 100 µM (human STING (HAQ)): 0.13 °C; EC50 (huSTING (HAQ); 24 h, top concentration 50 μM): 2.58 µM
CCOC(=O)c1sc2cccc(Cl)c2c1COc1ccc(C(N)=O)cc1 [Example 7, Ethyl 3-((4-carbamoylphenoxy)methyl)-4-chlorobenzo[b]thiophene-2-carboxylate] | 8.94 µM |  | ΔTm at 100 µM (human STING (HAQ)): 0.26 °C; EC50 (huSTING (HAQ); 24 h, top concentration 50 μM): 0.705 µM
NC(=O)c1ccc(OCc2c(C(=O)O)sc3cccc(Cl)c23)cc1 [Example 8, 3-((4-Carbamoylphenoxy)methyl)-4-chlorobenzo[b]thiophene-2-carboxylic acid] |  |  | DSF huSTING (HAQ) ΔTm (° C.) (human STING (HAQ); 1 μM protein, compound at 100 μM): 13.96 °C
CC(C)(C)C(=O)OCOC(=O)c1sc2cccc(Cl)c2c1COc1ccc(C(N)=O)cc1 [Example 74, (Pivaloyloxy)methyl 3-((4-carbamoylphenoxy)methyl)-4-chlorobenzo[b]thiophene-2-carboxylate] | 2.47 µM |  | EC50 (huSTING (HAQ); 24 h, top concentration 50 μM): 1.05 µM; ΔTm at 100 µM (huSTING (WT) [2]; 1 μM protein, compound at 100 μM, read-out: DSF huSTING (WT) ΔTm (° C.)): -4.22 °C
NC(=O)c1cc(F)c(OCc2c(C(=O)O)sc3cccc(Cl)c23)c(CO)c1 [Example 111, 3-((4-Carbamoyl-2-fluoro-6-(hydroxymethyl)phenoxy)methyl)-4-chlorobenzo[b]thiophene-2-carboxylic acid] | 17.2 µM | 16.2 µM | DSF huSTING (WT) ΔTm (° C.) (huSTING (WT) [2]; compound 100 μM, protein concentration 2 μM): 10.88 °C
COC(=O)c1sc2cccc(F)c2c1COc1ccc(C(N)=O)cc1 [Example 141, Methyl 3-((4-carbamoylphenoxy)methyl)-4-fluorobenzo[b]thiophene-2-carboxylate] | 3.34 µM | 1.77 µM | 
CCOC(=O)c1sc2cccc(C3CC3)c2c1COc1c(F)cc(C(N)=O)cc1F [Example 142, Ethyl 3-((4-carbamoyl-2,6-difluorophenoxy)methyl)-4-cyclopropylbenzo[b]thiophene-2-carboxylate] | 3.12 µM | 0.181 µM | 
CCOC(=O)c1sc2c(CO)ccc(Cl)c2c1COc1c(F)cc(C(N)=O)cc1F [Example 145, Ethyl 3-((4-carbamoyl-2,6-difluorophenoxy)methyl)-4-chloro-7-(hydroxymethyl)benzo[b]thiophene-2-carboxylate] | 3.84 µM | 0.746 µM | 
CCOC(=O)c1sc2cccc(Cl)c2c1COc1ccc(C(N)=O)c(-c2cn[nH]c2)c1 [Example 151, Ethyl 3-((4-carbamoyl-3-(1H-pyrazol-4-yl)phenoxy)methyl)-4-chlorobenzo[b]thiophene-2-carboxylate] | 3.46 µM | 1.82 µM | 
CC(C)[C@H](N)C(=O)OCOC(=O)c1sc2cccc(Cl)c2c1COc1c(F)cc(C(N)=O)cc1F [Example 152, ((L-Valyl)oxy)methyl 3-((4-carbamoyl-2,6-difluorophenoxy)methyl)-4-chlorobenzo[b]thiophene-2-carboxylate trifluoroacetate salt] | 53.7 µM | 0.967 µM | 
COc1cccc2sc(C(=O)OC3CCCC3)c(COc3ccc(C(N)=O)cc3)c12 [Example 155, Cyclopentyl 3-((4-carbamoylphenoxy)methyl)-4-methoxybenzo[b]thiophene-2-carboxylate] | 3.82 µM | 0.23 µM | 
COc1cccc2sc(C(=O)OCc3ccccc3)c(COc3ccc(C(N)=O)cc3)c12 [Example 156, Benzyl 3-((4-carbamoylphenoxy)methyl)-4-methoxybenzo[b]thiophene-2-carboxylate] | 4.51 µM | 0.628 µM | 
CCOC(=O)c1sc2cccc(OC)c2c1COc1c(F)cc(C(N)=O)cc1F [Example 165, Ethyl 3-((4-carbamoyl-2,6-difluorophenoxy)methyl)-4-methoxybenzo[b]thiophene-2-carboxylate] | 6.15 µM | 0.127 µM | 
NC(=O)c1ccc(OCc2c(C(=O)NCc3ccccc3)sc3cccc(Br)c23)cc1 [Example 166, N-Benzyl-4-bromo-3-((4-carbamoylphenoxy)methyl)benzo[b]thiophene-2-carboxamide] | 28.9 µM | 9.95 µM | 
C=Cc1cc(OCc2c(C(=O)OCC)sc3cccc(Cl)c23)ccc1C(N)=O [Example 168, Ethyl 3-((4-carbamoyl-3-vinylphenoxy)methyl)-4-chlorobenzo[b]thiophene-2-carboxylate] | > 40 µM | 7.44 µM | 
Cc1ccc2sc(C(=O)OCOC(=O)C(C)(C)C)c(COc3ccc(C(N)=O)cc3)c2c1Cl [Example 174, (Pivaloyloxy)methyl 3-((4-carbamoylphenoxy)methyl)-4-chloro-5-methylbenzo[b]thiophene-2-carboxylate] | 25.6 µM | 4.72 µM | 

More lines, main results first:

EC50 (huSTING (WT) [1]) | EC50 (huSTING (HAQ); [3]) | SMILES | further results
0.925 µM | 0.023 µM | CCOC(=O)c1sc2c(C)ccc(Cl)c2c1COc1c(F)cc(C(N)=O)cc1F [Example 144, Ethyl 3-((4-carbamoyl-2,6-difluorophenoxy)methyl)-4-chloro-7-methylbenzo[b]thiophene-2-carboxylate] | 
2.15 µM | 0.041 µM | CCOC(=O)c1sc2c(COC)ccc(Cl)c2c1COc1c(F)cc(C(N)=O)cc1F [Example 146, Ethyl 3-((4-carbamoyl-2,6-difluorophenoxy)methyl)-4-chloro-7-(methoxymethyl)benzo[b]thiophene-2-carboxylate] | 
1.62 µM | 0.065 µM | CCOC(=O)c1sc2c(O)ccc(Cl)c2c1COc1c(F)cc(C(N)=O)cc1F [Example 147, Ethyl 3-((4-carbamoyl-2,6-difluorophenoxy)methyl)-4-chloro-7-hydroxybenzo[b]thiophene-2-carboxylate] | 
0.797 µM | 0.613 µM | CCOC(=O)c1sc2c(OC)ccc(Cl)c2c1COc1c(F)cc(C(N)=O)cc1F [Example 149, Ethyl 3-((4-carbamoyl-2,6-difluorophenoxy)methyl)-4-chloro-7-methoxybenzo[b]thiophene-2-carboxylate] | 
0.489 µM | 0.55 µM | CCOC(=O)c1sc2cccc(Cl)c2c1COc1ccc(C(N)=O)c(COC)c1 [Example 150, Ethyl 3-((4-carbamoyl-3-(methoxymethyl)phenoxy)methyl)-4-chlorobenzo[b]thiophene-2-carboxylate] | 
0.207 µM | 0.129 µM | CCOC(=O)c1sc2c(C#N)ccc(Cl)c2c1COc1c(F)cc(C(N)=O)cc1F [Example 153, Ethyl 3-((4-carbamoyl-2,6-difluorophenoxy)methyl)-4-chloro-7-cyanobenzo[b]thiophene-2-carboxylate] | 
2.05 µM | 0.448 µM | COc1cccc2sc(C(=O)OC(C)C)c(COc3ccc(C(N)=O)cc3)c12 [Example 154, Isopropyl 3-((4-carbamoylphenoxy)methyl)-4-methoxybenzo[b]thiophene-2-carboxylate] | 
2.03 µM | 0.373 µM | COc1cccc2sc(C(=O)OCCN3CCOCC3)c(COc3ccc(C(N)=O)cc3)c12 [Example 157, 2-Morpholinoethyl 3-((4-carbamoylphenoxy)methyl)-4-methoxybenzo[b]thiophene-2-carboxylate] | 
1.56 µM | 0.062 µM | COC(=O)N1CCC(OC(=O)c2sc3cccc(Cl)c3c2COc2c(F)cc(C(N)=O)cc2F)CC1 [Example 163, Methyl 4-((3-((4-carbamoyl-2,6-difluorophenoxy)methyl)-4-chlorobenzo[b]thiophene-2-carbonyl)oxy)piperidine-1-carboxylate] | 
0.249 µM | 0.027 µM | CN1CC(OC(=O)c2sc3cccc(Cl)c3c2COc2c(F)cc(C(N)=O)cc2F)C1 [Example 164, 1-Methylazetidin-3-yl 3-((4-carbamoyl-2,6-difluorophenoxy)methyl)-4-chlorobenzo[b]thiophene-2-carboxylate] | 
0.45 µM | 0.189 µM | CCOC(=O)c1sc2cncc(Cl)c2c1COc1c(F)cc(C(N)=O)cc1F [Example 170, Ethyl 3-((4-carbamoyl-2,6-difluorophenoxy)methyl)-4-chlorothieno[2,3-c]pyridine-2-carboxylate] | 
0.208 µM | 0.055 µM | CC(C)(C)C(=O)OCOC(=O)c1sc2cccc(Cl)c2c1COc1c(F)cc(C(N)=O)cc1F [Example 173, (Pivaloyloxy)methyl 3-((4-carbamoyl-2,6-difluorophenoxy)methyl)-4-chlorobenzo[b]thiophene-2-carboxylate] | 
